Experimental data from patent US12194044B2, “Organic compounds” (priority 2016, dated 2025).

How the values were obtained:
[1] = Pharmacokinetics in rats, PO and IV cross-over, plasma parent and metabolite AUC; format: in vivo; conditions: male, Sprague-Dawley, rat
Protocol: The pharmacokinetics of each compound is determined after both oral (PO) and intravenous (IV) administration in cross-over studies in rats.
PO Administration: Six male Sprague-Dawley rats are divided into two 3-rat groups for PO administration of compound on day 1 of the study. […] Blood samples are collected at 0.25, 0.5, 1, 2, 4, 6, 8, 12 and 24-hours post dose and analyzed for plasma concentration of the administered compound and its metabolites.
IV Administration: Six male Sprague-Dawley rats are divided into two 3-rat groups for IV administration of compound on day 1 of the study. […] Blood samples are collected at 2 minutes, 5 minutes, 0.25, 0.5, 2, 4, 6, 8 and 12 hours post dose and analyzed for plasma concentration of the administered compound and its metabolites.
(§1) All blood samples are processed to plasma and analyzed for parent and metabolite concentrations using liquid chromatography-tandem mass spectrometry (LC-MS/MS). The metabolites analyzed include the N-demethylated amide compound Q-1 (discussed supra). Area under the curve (AUC) of parent and metabolites based on plasma versus time data are calculated using Prism 5.04 software (GraphPad Software, Inc.).

Serotonin 5-HT2A [2] = target: T1, Serotonin 5-HT2A (Homo sapiens, UniProt P28223); assay: Receptor binding studies, inhibition of human serotonin 5-HT2A receptor; conditions: read-out: inhibition of the human serotonin 5-HT2A receptor
T1 sequence (P28223 whole entry): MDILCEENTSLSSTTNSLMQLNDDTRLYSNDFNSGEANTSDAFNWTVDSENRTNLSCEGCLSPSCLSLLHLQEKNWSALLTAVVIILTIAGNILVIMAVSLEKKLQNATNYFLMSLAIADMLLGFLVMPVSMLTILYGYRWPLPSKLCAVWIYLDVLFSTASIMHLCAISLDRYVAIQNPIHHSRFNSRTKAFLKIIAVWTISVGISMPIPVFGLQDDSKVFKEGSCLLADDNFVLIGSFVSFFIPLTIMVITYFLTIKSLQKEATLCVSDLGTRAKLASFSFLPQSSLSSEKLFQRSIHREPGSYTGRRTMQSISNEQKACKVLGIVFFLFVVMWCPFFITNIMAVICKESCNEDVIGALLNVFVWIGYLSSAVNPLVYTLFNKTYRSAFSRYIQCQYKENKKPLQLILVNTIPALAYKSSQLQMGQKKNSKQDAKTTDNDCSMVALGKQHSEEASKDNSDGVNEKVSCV

[3] = Measurement of parent and amide metabolite levels in mice after single oral dose; format: in vivo; conditions: for extent of amide formation compared to compound Q after normalizing for internal standard: normalized to internal standard
Protocol: The compound of Comparative Example 4 is used as an internal standard in each study in order to control for differences in the inherent rate of metabolism in each study's animal group. […] The maximum concentration, time to maximum concentration, and Area Under the Curve (AUC) for both the parent and the major amide metabolite is determined. […] Relative Amide Formation is thus calculated as follows for each Example X (i.e., Ex. 1, Ex. 2, Ex. 3 and Ex. Q): [formula]

[4] = system: serotonin receptor (e.g., 5-HT2A), dopamine receptor (e.g., D2) and serotonin transporter; assay: Receptor binding studies, binding profile compared to Formula Q
[5] = Pharmacokinetics in dogs, SL and SC, plasma parent and metabolite AUC; format: in vivo, beagle dogs; conditions: dog
Protocol: The pharmacokinetics of each compound is determined after both sublingual (SL) and subcutaneous (SC) administration in non-cross over sequential studies in dogs.
SC Administration: Six male beagle dogs between 2 and 5 years of age are randomized in two groups of three dogs each. […] Dogs in group 2 are administered the compound of Example 2 at a dose of 1 mg/kg (free base equivalent) in a 0.5% methylcellulose/distilled water vehicle. Administration is subcutaneous in the intrascapular region via a 22 or 23 gauge needle. Whole blood samples are collected via the dog's cephalic vein pre-dose, and at post-dose time-points 5, 15 and 30 minutes, 1, 2, 4, 6, 8 and 24 hours. Following a minimum 7-day washout period, the dogs are transferred to the sublingual portion of the study.
Dogs in group 2 are administered the compound of Example 2 at a dose of 1 mg/kg (free base equivalent) in a 0.5% methylcellulose/distilled water vehicle. The animals are anesthetized prior to administration of the dose using propofol (6 mg/kg) and anesthesia is maintained for 30 minutes using 3-4.5% isoflurane. Administration is sublingual and the dosage is applied for 30 minutes, then wiped off using unwoven gauze. Whole blood samples are collected via the dog's cephalic vein pre-dose, and at post-dose time-points 5, 15 and 30 minutes, 1, 2, 4, 6, 8, 24, 36 and 48 hours.
as §1, with “The metabolites analyzed include the N-demethylated amide compound Q-1 (discussed supra).” left out

Dopamine D2 = Dopamine D2 (Homo sapiens, UniProt P14416); assay: Receptor activity Ki, dopamine D2; format: binding
Dopamine D2, sequence (P14416 whole entry): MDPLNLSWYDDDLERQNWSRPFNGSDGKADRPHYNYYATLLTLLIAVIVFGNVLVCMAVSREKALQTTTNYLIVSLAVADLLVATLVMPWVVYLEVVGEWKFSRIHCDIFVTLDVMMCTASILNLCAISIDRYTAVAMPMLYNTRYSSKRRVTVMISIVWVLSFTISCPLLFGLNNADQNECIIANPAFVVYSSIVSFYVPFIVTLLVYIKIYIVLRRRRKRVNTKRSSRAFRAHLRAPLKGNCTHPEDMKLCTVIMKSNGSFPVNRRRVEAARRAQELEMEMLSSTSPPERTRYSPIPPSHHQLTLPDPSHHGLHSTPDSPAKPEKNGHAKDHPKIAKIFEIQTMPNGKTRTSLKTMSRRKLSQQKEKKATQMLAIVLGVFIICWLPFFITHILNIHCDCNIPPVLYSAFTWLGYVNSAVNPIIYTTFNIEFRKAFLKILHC

Dopamine D1 = Dopamine D1 (Homo sapiens, UniProt P21728); assay: Receptor activity Ki, dopamine D1; format: binding
Dopamine D1, sequence (P21728 whole entry): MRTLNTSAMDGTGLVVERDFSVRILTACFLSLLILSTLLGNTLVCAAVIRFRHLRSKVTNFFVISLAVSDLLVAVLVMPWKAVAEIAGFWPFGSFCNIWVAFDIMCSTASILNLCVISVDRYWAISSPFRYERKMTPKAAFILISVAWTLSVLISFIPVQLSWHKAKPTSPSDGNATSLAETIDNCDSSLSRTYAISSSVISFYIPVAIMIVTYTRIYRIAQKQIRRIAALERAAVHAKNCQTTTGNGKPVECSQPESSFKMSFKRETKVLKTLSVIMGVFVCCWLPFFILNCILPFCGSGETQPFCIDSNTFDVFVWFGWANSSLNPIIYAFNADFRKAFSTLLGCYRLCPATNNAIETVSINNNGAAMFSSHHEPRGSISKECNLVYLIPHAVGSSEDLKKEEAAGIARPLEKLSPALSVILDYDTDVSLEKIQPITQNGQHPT

Serotonin Transporter = Serotonin Transporter (Homo sapiens, UniProt P31645); assay: Receptor activity Ki, serotonin transporter; format: binding
Serotonin Transporter, sequence (P31645 whole entry): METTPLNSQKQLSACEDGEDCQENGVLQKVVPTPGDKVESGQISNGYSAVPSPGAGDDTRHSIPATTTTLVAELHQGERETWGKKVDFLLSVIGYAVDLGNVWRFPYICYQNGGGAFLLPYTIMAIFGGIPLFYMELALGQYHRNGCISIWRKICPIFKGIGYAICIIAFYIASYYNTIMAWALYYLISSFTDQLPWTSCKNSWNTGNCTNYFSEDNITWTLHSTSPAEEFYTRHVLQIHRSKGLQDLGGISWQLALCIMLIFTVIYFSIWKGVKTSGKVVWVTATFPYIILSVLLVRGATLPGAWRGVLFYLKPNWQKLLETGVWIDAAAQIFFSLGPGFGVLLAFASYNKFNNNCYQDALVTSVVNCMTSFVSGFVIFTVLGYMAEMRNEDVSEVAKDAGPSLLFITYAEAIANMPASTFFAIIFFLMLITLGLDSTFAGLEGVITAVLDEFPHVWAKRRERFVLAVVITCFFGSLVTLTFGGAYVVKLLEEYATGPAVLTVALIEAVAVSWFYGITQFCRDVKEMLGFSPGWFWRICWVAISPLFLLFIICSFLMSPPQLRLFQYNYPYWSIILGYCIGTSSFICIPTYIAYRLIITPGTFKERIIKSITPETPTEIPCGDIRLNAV

Serotonin 5-HT2A [6] = target: T1, Serotonin 5-HT2A; assay: biochemical

AUC ([1]; iv, 1 mg/kg) [µg·h/mL]	AUC ([1]; po, 10 mg/kg) [µg·h/mL]	extent of conversion of the parent compound to the amide metabolite compared to Formula Q [3]	extent of amide formation compared to compound Q after normalizing for internal standard [3]	SMILES	receptor binding profile compared to Formula Q [4]	Ki (Dopamine D2) [µM]	Ki (Serotonin Transporter) [µM]	other results
0.257	0.0585	considerably lower	significantly lower	[2H]C1([2H])CN2c3c(cccc3N1C)[C@@H]1CN(CCCC(=O)c3ccc(F)cc3)CC[C@@H]12 (stereo in doubt) [Example 2, 2,2-D2-1-(4-fluorophenyl)-4-((6bR,10aS)-3-methyl-2,3,6b,7,10,10a-hexahydro-1H-pyrido[3′,4′:4,5]pyrrolo[1,2,3-de]quinoxalin-8(9H)-yl)butan-1-one]	substantially the same receptor binding profile	–	–	inhibition at 0.1 µM (Serotonin 5-HT2A [2]): 98%; higher parent AUC compared to dosing of Formula Q ([5]; SL dosing): about 72%; higher parent AUC for SL compared to SC ([5]; SL vs SC): 61%
–	–	considerably lower	significantly lower	[2H]C([2H])([2H])N1CCN2c3c(cccc31)[C@@H]1CN(CCCC(=O)c3ccc(F)cc3)CC[C@@H]12 [Example 1, 1-(4-Fluorophenyl)-4-((6bR,10aS)-3-methyl-d3-2,3,6b,7,10,10a-hexahydro-1H-pyrido[3′,4′:4,5]pyrrolo[1,2,3-de]quinoxalin-8(9H)-yl)butan-1-one p-toluenesulfonate]	substantially the same receptor binding profile	–	–	–
–	–	considerably lower	significantly lower	[2H]C([2H])([2H])N1c2cccc3c2N(CC1([2H])[2H])[C@H]1CCN(CCCC(=O)c2ccc(F)cc2)C[C@@H]31 [Example 3, 2,2-D2-1-(4-fluorophenyl)-4-((6bR,10aS)-3-methyl-d3-2,3,6b,7,10,10a-hexahydro-1H-pyrido[3′,4′:4,5]pyrrolo[1,2,3-de]quinoxalin-8(9H)-yl)butan-1-one p-toluenesulfonate]	substantially the same receptor binding profile	–	–	–
–	–	–	–	O=C(CCCN1CC[C@H]2[C@@H](C1)c1cccc3c1N2CCN3)c1ccc(F)cc1 [Example Q-1A]	–	0.03	0.031 to 0.078	Ki (Dopamine D1): 0.11 µM; Ki (Serotonin 5-HT2A [6]): 0.002 µM
–	–	–	–	O=C1CN2c3c(cccc3[C@@H]3CN(CCCC(=O)c4ccc(F)cc4)CC[C@@H]32)N1 [Example Q-1]	–	0.05 to 0.25	> 0.6	–
0.231	0.056	–	–	CN1CCN2c3c(cccc31)[C@@H]1CN(CCCC(=O)c3ccc(F)cc3)CC[C@@H]12 [Formula Q, 4-((6bR,10aS)-3-methyl-2,3,6b,9,10,10a-hexahydro-1H-pyrido[3′,4′: 4,5]pyrrolo[1,2,3-de]quinoxalin-8(7H)-yl)-1-(4-fluorophenyl)-1-butanone, reference compound]	–	–	–	less net AUC of parent compound, SL compared to SC administration ([5]; SL vs SC): 10%
